Reference: patent publication US20240197900A1, “DISACCHARIDE LINKER, DISACCHARIDE-SMALL MOLECULE DRUG CONJUGATE AND SUGAR CHAIN FIXED-POINT ANTIBODY-DRUG CONJUGATE, AND PREPARATION METHOD THEREFOR AND USE THEREOF” (priority 2021, published 2024)

Molecular target: Endo-S2 (Streptococcus pyogenes serotype M49, UniProt T1WGN1)
Experiment: Screening of sugar substrates: transfer of oxazoline substrates to deglycosylated antibody by Endo-S2
Type: biochemical
Conditions: substrate 1.5 mM, (Fuc α1,6)GlcNAc-Herceptin 5 mg/mL, Endo-S2 0.2 mg/mL, 3 h; for recognition by / transfer activity of Endo-S2 (in words): 30° C., FIG. 1B
Method: Different sugar substrates (1 equivalent, including monosaccharide, disaccharide and trisaccharide structures) were weighed and dissolved in 50 mM PB, pH 7.0 buffer, CDMBI (5 equivalents) was added to the above system, mixed well and cooled to 0° C. Potassium phosphate (15 eq) was added, the final concentration of the sugar substrates in the reaction system was 10 mM, and the reaction was carried out at 0° C. for 2 h. Plenty of precipitate was observed, which was removed by centrifugation. The supernatant was oxazoline substrates G1, G12, G15-G20 containing salts, which were directly used for the next step of screening.
Oxazoline substrates (G1, G12, G15-G20), deglycosylated antibody (Fuc α1.6) GlcNAc-Herceptin and endoglycosidase Endo-S2 were sequentially added to 50 mM Tris-HCl, pH 7.2 buffer, such that the final concentrations of each were 1.5 mM, 5 mg/mL, and 0.2 mg/mL, respectively, which was incubated at 30° C. for 3 h for detection by mass spectrometry. At the same time, a control group without endoglycosidase was set to eliminate the influence of non-enzymatic reactions.

Sequence of Endo-S2 (T1WGN1 37-843): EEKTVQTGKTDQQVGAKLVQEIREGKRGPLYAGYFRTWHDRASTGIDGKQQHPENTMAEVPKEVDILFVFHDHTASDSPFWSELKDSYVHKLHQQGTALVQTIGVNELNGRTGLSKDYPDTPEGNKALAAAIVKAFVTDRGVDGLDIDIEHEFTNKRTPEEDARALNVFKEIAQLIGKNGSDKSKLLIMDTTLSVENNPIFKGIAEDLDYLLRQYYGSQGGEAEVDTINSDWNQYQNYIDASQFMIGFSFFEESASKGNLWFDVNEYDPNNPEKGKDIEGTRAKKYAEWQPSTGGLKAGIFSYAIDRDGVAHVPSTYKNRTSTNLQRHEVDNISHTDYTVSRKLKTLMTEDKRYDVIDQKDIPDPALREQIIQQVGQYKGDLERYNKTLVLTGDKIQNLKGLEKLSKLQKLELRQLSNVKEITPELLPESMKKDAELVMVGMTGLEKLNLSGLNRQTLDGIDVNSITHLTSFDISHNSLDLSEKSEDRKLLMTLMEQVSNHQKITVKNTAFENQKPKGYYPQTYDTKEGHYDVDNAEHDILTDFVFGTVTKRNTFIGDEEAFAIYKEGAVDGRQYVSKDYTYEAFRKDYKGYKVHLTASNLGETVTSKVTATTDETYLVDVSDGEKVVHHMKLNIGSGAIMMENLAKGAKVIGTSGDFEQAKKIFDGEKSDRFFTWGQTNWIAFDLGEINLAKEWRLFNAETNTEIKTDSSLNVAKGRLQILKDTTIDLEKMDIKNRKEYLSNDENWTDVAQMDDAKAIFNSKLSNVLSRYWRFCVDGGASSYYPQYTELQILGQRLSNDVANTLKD

SMILES	recognition by / transfer activity of Endo-S2 (in words)	transfer efficiency to the deglycosylated antibody (Tris-HCl pH 7.2, 30° C., mass spectrometry) [%]
CC(=O)N[C@H]1C([C@H](O)[C@H](O)CO)O[C@@](OCC2O[C@@H](O[C@@H]3C(CO)O[C@@H]4OC(C)=NC4[C@H]3O)C(O)[C@@H](O)[C@H]2O)(C(=O)O)C[C@H]1O (stereo partly drawn) [G12]	well recognized	
CC1=NC2C(O[C@@H]3OC(C)[C@@H](O)C(O)C3O)[C@H](O[C@@H]3OC(CO)[C@H](O)C(O)C3O)C(CO)O[C@@H]2O1 (stereo partly drawn) [G20]	greatly reduced	
CC1=NC2[C@@H](O1)OC(CO)[C@@H](O[C@@H]1OC(CO)[C@H](O)[C@H](O)C1O)[C@@H]2O (stereo partly drawn) [G1]		68
